Reference: ChEMBL document CHEMBL1201862, “PubChem BioAssay data set” (2004)
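1) Cells in 96-well plates. 2) Compound, 48 h, 5 concentrations. 3) Linear interpolation between surrounding doses. 4) Unreached endpoint = highest concentration. GI50: concentration for 50% inhibition of growth.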 Activity calls are given as the source filed them. Cut-off read from the data, not from the text of the source: active = GI50 up to about 1.1 µM and inactive = higher.

Assays:
Assay in all cases: NCI-60 cell line screen, 48 h
NCI-H460 = test system: NCI-H460
SNB-19 = test system: SNB-19
DU-145 = test system: DU-145
HL-60 = test system: HL-60
UO-31 = test system: UO-31
SK-MEL-5 = test system: SK-MEL-5
M14 = test system: M14
OVCAR-8 = test system: OVCAR-8
Hs-578T = test system: Hs-578T
LOX IMVI = test system: LOX IMVI
SF-268 = test system: SF-268
HOP-62 = test system: HOP-62
NCI/ADR-RES = test system: NCI/ADR-RES
IGROV-1 = test system: IGROV-1
HOP-92 = test system: HOP-92
BT-549 = test system: BT-549
SK-MEL-2 = test system: SK-MEL-2
SNB-75 = test system: SNB-75
PC-3 = test system: PC-3
NCI-H522 = test system: NCI-H522
KM12 = test system: KM12
U-251 = test system: U-251
MOLT-4 = test system: MOLT-4
NCI-H23 = test system: NCI-H23
T47D = test system: T47D
HT-29 = test system: HT-29
OVCAR-5 = test system: OVCAR-5
SF-539 = test system: SF-539
RXF 393 = test system: RXF 393
UACC-257 = test system: UACC-257
MDA-MB-231 = test system: MDA-MB-231
SK-OV-3 = test system: SK-OV-3
OVCAR-4 = test system: OVCAR-4
TK-10 = test system: TK-10
MDA-N = test system: MDA-N
K562 = test system: K562
CCRF-CEM = test system: CCRF-CEM
A549 = test system: A549
SN12C = test system: SN12C
HCT-15 = test system: HCT-15
HCT-116 = test system: HCT-116
RPMI-8226 = test system: RPMI-8226
UACC-62 = test system: UACC-62
SF-295 = test system: SF-295
SK-MEL-28 = test system: SK-MEL-28
786-0 = test system: 786-0
ACHN = test system: ACHN
SW-620 = test system: SW-620
MCF7 = test system: MCF7
COLO 205 = test system: COLO 205
Malme-3M = test system: Malme-3M
CAKI-1 = test system: CAKI-1
NCI-H226 = test system: NCI-H226
MDA-MB-435 = test system: MDA-MB-435
HCC 2998 = test system: HCC 2998
EKVX = test system: EKVX
A498 = test system: A498
OVCAR-3 = test system: OVCAR-3

In the case of `Cc1ccc(S(=O)(=O)NC(=O)NCC(=O)O)cc1`, the GI50 (NCI-H460) is reported as > 100 µM (inactive), the GI50 (SNB-19) is reported as > 100 µM (inactive) and the GI50 (DU-145) is reported as > 100 µM (inactive). The GI50 (HL-60) was > 100 µM (inactive), the GI50 (UO-31) was > 100 µM (inactive) and the GI50 (SK-MEL-5) was > 100 µM (inactive). The GI50 (M14) was > 100 µM (inactive), the GI50 (OVCAR-8) was > 100 µM (inactive) and the GI50 (Hs-578T) was > 100 µM (inactive). The GI50 (LOX IMVI) was > 100 µM (inactive), the GI50 (SF-268) was > 100 µM (inactive) and the GI50 (HOP-62) was > 100 µM (inactive). The GI50 (NCI/ADR-RES) was > 100 µM (inactive), the GI50 (IGROV-1) was > 100 µM (inactive) and the GI50 (HOP-92) was > 100 µM (inactive). The GI50 (BT-549) was > 100 µM (inactive), the GI50 (SK-MEL-2) was > 100 µM (inactive) and the GI50 (SNB-75) was > 100 µM (inactive). The GI50 (PC-3) was > 100 µM (inactive), the GI50 (NCI-H522) was > 100 µM (inactive) and the GI50 (KM12) was > 100 µM (inactive). For the same compound, the GI50 (U-251) was > 100 µM (inactive), the GI50 (MOLT-4) was > 100 µM (inactive) and the GI50 (NCI-H23) was > 100 µM (inactive). For the same compound, the GI50 (T47D) was > 100 µM (inactive), the GI50 (HT-29) was > 100 µM (inactive) and the GI50 (OVCAR-5) was > 100 µM (inactive). For the same compound, the GI50 (SF-539) was > 100 µM (inactive), the GI50 (RXF 393) was > 100 µM (inactive) and the GI50 (UACC-257) was > 100 µM (inactive). The GI50 (MDA-MB-231) was > 100 µM (inactive), the GI50 (SK-OV-3) was > 100 µM (inactive) and the GI50 (OVCAR-4) was > 100 µM (inactive). For the same compound, the GI50 (TK-10) was > 100 µM (inactive), the GI50 (MDA-N) was > 100 µM (inactive) and the GI50 (K562) was > 100 µM (inactive). The GI50 (CCRF-CEM) was > 100 µM (inactive), the GI50 (A549) was > 100 µM (inactive) and the GI50 (SN12C) was > 100 µM (inactive). The GI50 (HCT-15) was > 100 µM, the GI50 (HCT-116) was > 100 µM (inactive) and the GI50 (RPMI-8226) was > 100 µM (inactive). For the same compound, the GI50 (UACC-62) was > 100 µM (inactive), the GI50 (SF-295) was > 100 µM (inactive) and the GI50 (SK-MEL-28) was > 100 µM (inactive). For the same compound, the GI50 (786-0) was > 100 µM (inactive), the GI50 (ACHN) was > 100 µM (inactive) and the GI50 (SW-620) was > 100 µM (inactive). The GI50 (MCF7) was > 100 µM (inactive), the GI50 (COLO 205) was > 100 µM (inactive) and the GI50 (Malme-3M) was > 100 µM (inactive).
For `CC(NC(=O)/C(=C/c1ccccc1O)NC(=O)c1ccccc1)C(=O)O` (centres undefined), the GI50 (NCI-H460) was 24.5 µM (inactive), the GI50 (SNB-19) was 20.6 µM (inactive) and the GI50 (CAKI-1) was 19 µM (inactive). The GI50 (DU-145) was 45.6 µM (inactive), the GI50 (HL-60) was > 100 µM (inactive) and the GI50 (UO-31) was 17.5 µM (inactive). The GI50 (SK-MEL-5) was 55.2 µM (inactive), the GI50 (M14) was 51.3 µM (inactive) and the GI50 (NCI-H226) was 14 µM (inactive). For the same compound, the GI50 (OVCAR-8) was 15.7 µM (inactive), the GI50 (Hs-578T) was 17.4 µM (inactive) and the GI50 (LOX IMVI) was 33.2 µM (inactive). For the same compound, the GI50 (SF-268) was 15.8 µM (inactive), the GI50 (NCI/ADR-RES) was 12.7 µM (inactive) and the GI50 (IGROV-1) was 17.9 µM (inactive). For the same compound, the GI50 (HOP-92) was 22.2 µM (inactive), the GI50 (BT-549) was 18.9 µM (inactive) and the GI50 (SNB-75) was 15.4 µM (inactive). For the same compound, the GI50 (NCI-H522) was 18.5 µM (inactive), the GI50 (KM12) was 16.8 µM (inactive) and the GI50 (U-251) was 50.5 µM (inactive). For the same compound, the GI50 (MDA-MB-435) was 27.8 µM (inactive), the GI50 (MOLT-4) was > 100 µM (inactive) and the GI50 (NCI-H23) was > 100 µM (inactive). For the same compound, the GI50 (T47D) was 13.2 µM (inactive), the GI50 (HT-29) was 73.5 µM (inactive) and the GI50 (OVCAR-5) was > 100 µM (inactive). For the same compound, the GI50 (SF-539) was 18.1 µM (inactive), the GI50 (RXF 393) was 21.8 µM (inactive) and the GI50 (UACC-257) was 70 µM (inactive). The GI50 (MDA-MB-231) was 22 µM (inactive), the GI50 (SK-OV-3) was 19.4 µM (inactive) and the GI50 (OVCAR-4) was 40.4 µM (inactive). The GI50 (TK-10) was 44.3 µM (inactive), the GI50 (HCC 2998) was 9.23 µM (inactive) and the GI50 (MDA-N) was 8.13 µM (inactive). For the same compound, the GI50 (K562) was > 100 µM (inactive), the GI50 (CCRF-CEM) was > 100 µM (inactive) and the GI50 (EKVX) was 18.8 µM (inactive). For the same compound, the GI50 (A498) was > 100 µM (inactive), the GI50 (A549) was 43.1 µM (inactive) and the GI50 (SN12C) was 21.6 µM (inactive). The GI50 (HCT-15) was 24.1 µM, the GI50 (HCT-116) was 33.2 µM (inactive) and the GI50 (RPMI-8226) was > 100 µM (inactive). The GI50 (UACC-62) was 26 µM (inactive), the GI50 (SF-295) was 21.4 µM (inactive) and the GI50 (SK-MEL-28) was > 100 µM (inactive). For the same compound, the GI50 (786-0) was 24.9 µM (inactive), the GI50 (ACHN) was 19.1 µM (inactive) and the GI50 (SW-620) was > 100 µM (inactive). The GI50 (MCF7) was 5.85 µM (inactive), the GI50 (COLO 205) was > 100 µM (inactive) and the GI50 (Malme-3M) was 21 µM (inactive).
In the case of `COc1cc(/C=C2/SC(c3ccccc3)N(c3cccc([N+](=O)[O-])c3)C2=O)cc(OC)c1OC` (centres undefined), the GI50 (NCI-H460) is reported as > 100 µM (inactive), the GI50 (SNB-19) is reported as > 100 µM (inactive) and the GI50 (CAKI-1) is reported as > 100 µM (inactive). The GI50 (DU-145) was > 100 µM (inactive), the GI50 (HL-60) was 60.8 µM (inactive) and the GI50 (UO-31) was > 100 µM (inactive). For the same compound, the GI50 (SK-MEL-5) was 50.1 µM (inactive), the GI50 (M14) was > 100 µM (inactive) and the GI50 (NCI-H226) was > 100 µM (inactive). The GI50 (OVCAR-3) was > 100 µM (inactive), the GI50 (OVCAR-8) was > 100 µM (inactive) and the GI50 (Hs-578T) was > 100 µM (inactive). For the same compound, the GI50 (LOX IMVI) was > 100 µM (inactive), the GI50 (SF-268) was > 100 µM (inactive) and the GI50 (HOP-62) was > 100 µM (inactive). The GI50 (NCI/ADR-RES) was > 100 µM (inactive), the GI50 (HOP-92) was > 100 µM (inactive) and the GI50 (BT-549) was > 100 µM (inactive). For the same compound, the GI50 (SK-MEL-2) was > 100 µM (inactive), the GI50 (NCI-H522) was 60.5 µM (inactive) and the GI50 (KM12) was 95.1 µM (inactive). For the same compound, the GI50 (U-251) was > 100 µM (inactive), the GI50 (MDA-MB-435) was 26.9 µM (inactive) and the GI50 (MOLT-4) was > 100 µM (inactive). The GI50 (NCI-H23) was > 100 µM (inactive), the GI50 (T47D) was 97.5 µM (inactive) and the GI50 (OVCAR-5) was > 100 µM (inactive). For the same compound, the GI50 (SF-539) was > 100 µM (inactive), the GI50 (RXF 393) was > 100 µM (inactive) and the GI50 (UACC-257) was > 100 µM (inactive). The GI50 (MDA-MB-231) was > 100 µM (inactive), the GI50 (SK-OV-3) was > 100 µM (inactive) and the GI50 (OVCAR-4) was > 100 µM (inactive). For the same compound, the GI50 (TK-10) was > 100 µM (inactive), the GI50 (HCC 2998) was > 100 µM (inactive) and the GI50 (MDA-N) was 25.1 µM (inactive). The GI50 (K562) was > 100 µM (inactive), the GI50 (CCRF-CEM) was 22.2 µM (inactive) and the GI50 (EKVX) was > 100 µM (inactive). For the same compound, the GI50 (A498) was > 100 µM (inactive), the GI50 (A549) was > 100 µM (inactive) and the GI50 (SN12C) was > 100 µM (inactive). For the same compound, the GI50 (HCT-15) was > 100 µM, the GI50 (HCT-116) was 61.4 µM (inactive) and the GI50 (RPMI-8226) was > 100 µM (inactive). For the same compound, the GI50 (UACC-62) was 95.3 µM (inactive), the GI50 (SF-295) was > 100 µM (inactive) and the GI50 (SK-MEL-28) was 55.5 µM (inactive). For the same compound, the GI50 (786-0) was > 100 µM (inactive), the GI50 (ACHN) was > 100 µM (inactive) and the GI50 (SW-620) was 74.5 µM (inactive). The GI50 (MCF7) was 46.2 µM (inactive), the GI50 (COLO 205) was > 100 µM (inactive) and the GI50 (Malme-3M) was 82.8 µM (inactive).
